Calls of active or inactive are those of the source. The calls are words filed in the database; no cut-off is given here.
How the values were obtained:
MCF7 = experiment: Cytotoxicity against human MCF7 cells assessed as reduction in cell viability after 48 hrs by MTT assay; type: functional, cell-based; settings: MCF7, 48 h
MDA-MB-231 [1] = experiment: Cytotoxicity against human MDA-MB-231 cells assessed as reduction in cell viability after 48 hrs by MTT assay; type: functional, cell-based; settings: MDA-MB-231, 48 h
MDA-MB-231 [2] = experiment: Induction of cell cycle arrest in human MDA-MB-231 cells assessed as increase in accumulation of cells at M phase at 12.5 to 50 uM after 24 hrs by propidium iodide staining base flow cytometric analysis; type: functional, cell-based; settings: dose 12.5-50 µM
MDA-MB-231 [3] = experiment: Induction of cell cycle arrest in human MDA-MB-231 cells assessed as accumulation of cells at G2M phase at 12.5 to 50 uM after 24 hrs by propidium iodide staining base flow cytometric analysis relative to control; type: functional; settings: dose 12.5-50 µM
MDA-MB-231 [4] = experiment: Induction of morphological changes in human MDA-MB-231 cells assessed as DNA fragmentation at IC50 concentration after 48 hrs by DAPI staining based fluorescent microscopic analysis; type: functional, cell-based
MDA-MB-231 [5] = experiment: Induction of cell cycle arrest in human MDA-MB-231 cells assessed as increase in accumulation of cells at S phase at 12.5 to 50 uM after 24 hrs by propidium iodide staining base flow cytometric analysis relative to control; type: functional; settings: dose 12.5-50 µM
[6] = Toxicity in Balb/C mouse assessed as mortality at 30 to 120 mg/kg after 24 hrs; type: organism-based; settings: in vivo, dose 30-120 mg/kg
Ehrlich = experiment: Antitumour activity against mouse EAC cells implanted in Balb/C mouse assessed as reduction in tumour volume at 60 to 120 mg/kg after 14 days; type: functional, organism-based; settings: dose 60-120 mg/kg, time 14.0 day
[7] = Toxicity in Balb/C mouse implanted with EAC cells assessed as mortality at 60 to 120 mg/kg after 14 days; type: organism-based; settings: in vivo, 336 h, dose 60-120 mg/kg, time 14 day
MDA-MB-231 [8] = experiment: Induction of cell cycle arrest in human MDA-MB-231 cells assessed as decrease in accumulation of cells at G0/G1 phase after 24 hrs by propidium iodide staining base flow cytometric analysis; type: functional, cell-based; settings: dose 12.5-50 µM
MDA-MB-231 [9] = experiment: Induction of apoptosis in human MDA-MB-231 cells assessed as decrease in Bcl2 protein expression at IC50 concentration after 48 hrs by Western blot analysis; type: functional, cell-based
[10] = Cytotoxicity against human OSE cells assessed as reduction in cell viability after 48 hrs by MTT assay; type: cell-based; settings: HOSE
MDA-MB-231 [11] = experiment: Induction of cell cycle arrest in human MDA-MB-231 cells assessed as accumulation of cells at G0/G1 phase at 50 uM after 24 hrs by propidium iodide staining base flow cytometric analysis (reference value: 73.2%); type: functional
MDA-MB-231 [12] = experiment: Induction of morphological changes in human MDA-MB-231 cells assessed as nuclear condensation at IC50 concentration after 48 hrs by DAPI staining based fluorescent microscopic analysis; type: functional, cell-based
MDA-MB-231 [13] = experiment: Cytotoxicity against human MDA-MB-231 cells assessed as reduction in cell viability at 25 to 400 uM after 48 hrs by MTT assay; type: functional, cell-based; settings: dose 25-400 µM
MDA-MB-231 [14] = experiment: Down regulation of VEGFR2 in human MDA-MB-231 cells at IC50 concentration after 48 hrs by Western blot analysis; type: functional, cell-based
HEK293 = experiment: Cytotoxicity against HEK293 cells assessed as reduction in cell viability after 48 hrs by MTT assay; type: cell-based; settings: Homo sapiens, HEK293, 48 h

Structure (SMILES)	IC50 (MCF7) [µM]	IC50 (MDA-MB-231 [1]) [µM]	also measured
COc1ccc2cc([C@H](C)C(=O)N/N=C/c3ccc(C#N)cc3)ccc2c1	60.9	389	
COc1ccc2cc([C@H](C)C(=O)N/N=C/c3cccc(OC(F)(F)F)c3)ccc2c1	> 400	157	
COc1ccc2cc([C@H](C)C(=O)N/N=C/c3ccccc3OC(F)(F)F)ccc2c1	59.8	22.4	Activity (MDA-MB-231 [2]): Active; Activity (MDA-MB-231 [3]): 14.5%; Activity (MDA-MB-231 [4]): Active; Activity (MDA-MB-231 [5]): 12.3%; Activity [6]: Non-Toxic; Activity (Ehrlich): Active; Activity [7]: Non-Toxic; Activity (MDA-MB-231 [8]): Dose-dependent effect; Activity (MDA-MB-231 [9]): Active; IC50 [10]: 49 µM; Activity (MDA-MB-231 [11]): 18.2%; Activity (MDA-MB-231 [12]): Active; Activity (MDA-MB-231 [13]): Active; Activity (MDA-MB-231 [14]): Active; IC50 (HEK293): 162 µM
COc1ccc2cc([C@H](C)C(=O)N/N=C/c3cccn3C)ccc2c1	352	129	
CCc1ccc(/C=N/NC(=O)[C@@H](C)c2ccc3cc(OC)ccc3c2)o1	260	178	
COc1cccc2c1C(=O)c1c(O)c3c(c(O)c1C2=O)C[C@@](O)(C(=O)CO)C[C@@H]3O[C@H]1C[C@H](N)[C@H](O)[C@H](C)O1 [DOXORUBICIN]		0.06	Activity (MDA-MB-231 [9]): Active; Activity (MDA-MB-231 [14]): Active
COc1ccc2cc([C@H](C)C(=O)N/N=C/c3c(F)cccc3F)ccc2c1	91.2	132	
COc1ccc2cc([C@H](C)C(=O)N/N=C/c3ccc(C(F)(F)F)cc3)ccc2c1	147	67	
COc1ccc2cc([C@H](C)C(=O)N/N=C/c3cccc(C(F)(F)F)c3)ccc2c1	69.4	55.5	
COc1ccc2cc([C@H](C)C(=O)N/N=C/c3cc(C(F)(F)F)cc(C(F)(F)F)c3)ccc2c1	185	353	
COc1ccc2cc([C@H](C)C(=O)N/N=C/c3cc(Br)cs3)ccc2c1	> 400	183	
COc1ccc2cc([C@H](C)C(=O)N/N=C/c3ccc([N+](=O)[O-])o3)ccc2c1	41.8	> 400	
COc1ccc2cc([C@H](C)C(=O)O)ccc2c1 [NAPROXEN]	> 400	> 400	Activity (MDA-MB-231 [4]): inactive; Activity (MDA-MB-231 [12]): inactive
COc1ccc2cc([C@H](C)C(=O)N/N=C/c3ccc(OC(F)(F)F)cc3)ccc2c1	> 400	79.5	
